Measurements: PMC5717258, “Bioaccumulation of pharmaceuticals and personal care product chemicals in fish exposed to wastewater effluent in an urban wetland” (Scientific Reports, 2017)
Read-outs that look alike come from different tables or passages of the source.

What was measured:
[1] = cited from earlier work
[2] = cited from earlier work; remark: listed apart in the source
[3] = Procedure: Plasma from 9 individual male fish (500 µL/individual) was pooled to yield 3 samples for PPCP analysis. […] Plasma from 6 individual carp (2.3–3.5 g) from each location was selected for PPCP analysis. […] Plasma samples were frozen (−80 °C) until analysis.
(§1) A total of 20 fish plasma samples from the pooled caged fish (7) and the wild fish (13) along with 12 water samples were selected for analysis. […] A full list of analytes is provided in Supplementary Information. Mass labelled^13C-, or deuterated surrogate internal standards were used for quantification of all analytes via the isotope dilution/surrogate standard quantitation method. Prior to extraction and/or clean-up procedures, aqueous samples were adjusted to pH 2.0, spiked with extraction surrogate standards, then adjusted to pH 4 using tetrasodium ethylenediamine-tetraacetate dihydrate. Plasma samples (2.3–2.5 g) were spiked with extraction surrogate standards, sonicated with 20 mL acetonitrile, then diluted with ultra-pure water to 200 mL. The extracts were cleaned up by solid phase extraction using Oasis HLB cartridges (Waters Ltd. Mississauga ON), filtered, and analyzed by liquid chromatography-electrospray ionization-tandem mass spectrometry (LC/ESI-MS/MS) in positive or negative ionization mode. The analysis of the complete list of analytes (SI Table S1) required a total of five instrumental runs.
(§2) Quality assurance steps included analysis of lab blanks for water and plasma along with matrix recovery spikes. […] Detection limits (DLs) were defined as lowest calibration level adjusted to the maximal sample size or 3 times the signal of the noise in the target channel converted to an equivalent sample, whichever was greater. […] Where analytes were detected in two or more samples of the same species or series of water samples, non-detect values were converted to ½ the DL value for reporting purposes.

in vivo = settings: for concentration at 21 days: goldfish (Carassius auratus)
From the text: Cages were visited weekly, and fish (13/cage) were fed during the visits (20 g/cage). All animal experiments were in accordance with CCAC guidance and approved by the GLLFAS-WSTD Animal Care Committee (Government of Canada). Further details on the caging and preparation of the fish and animal care protocols are provided in Simmons et al.[32]. […] A fourth site, Jordan Harbour (JH), a widening of 20 Mile Creek adjacent to Lake Ontario near Jordan ON, served as a reference site. Mass and fork length were measured and recorded. Plasma collection and storage is described in the SI. Plasma of caged goldfish was divided for proteome, metabolome and PPCP analysis. Due to limited volumes, pooled samples of plasma from 25 individual fish (50 µL/individual) was pooled to yield one sample from at each location for PPCP analysis.
as §1, §2

[4] = parameters: method as in US EPA Chemistry Dashboard; settings: ref US EPA Chemistry Dashboard; cited from earlier work
[5] = Plasma bioaccumulation factor (BAFP), goldfish; type: in vivo, goldfish (Carassius auratus); settings: for BAFP, CPM2 goldfish caged: water sample of August 2012; for BAFP at CPM3, wild goldfish, average: conc in fish plasma/conc in water; for BAFP at CPM3, wild goldfish, range: range based on range of plasma concentrations
Procedure: Bioaccumulation factor (BAFP) was calculated as concentration in fish plasma (ng/g × 1000) divided by concentration in water (ng/L). Two widely used modeling approaches for predicting organic contaminant bioaccumulation were assessed: the BCF-BAF model for whole body BAFs[53] and the fish-plasma concentration calculation of Huggett et al.[35] modified by Berninger et al.[54]. The latter involves estimating an octanol-water partition coefficient (Kow) adjusted for fraction ionized (log D), using the pKa value to adjust log Kow[54] taking into account the pH of CPM waters. Further information on the calculation of log D, blood-water partitioning (PBW), and plasma concentrations (FPC) is given in the SI.

[6] = human, ref Schulz et al.[56], cited from earlier work; for Therapeutic "normal" blood-plasma/serum concentration: converted from µg/mL
[7] = Table S7, ref Meador et al. (2016)
[8] = wild goldfish sample 01, 2012, wet weight
[9] = wild goldfish sample 02, 2012, wet weight
[10] = wild goldfish sample 03, 2012, wet weight
[11] = CPM1, 07-2014, pooled plasma, wet weight
[12] = CPM2, 07-2014, pooled plasma, wet weight
[13] = CPM3, 07-2014, pooled plasma, wet weight
[14] = Jordan Harbour reference site, 07-2014, pooled plasma, wet weight
[15] = male, goldfish (Carassius auratus), in vivo
[16] = in vivo, caged goldfish plasma, range of concentrations
[17] = in vivo, plasma concentration, CPM1 caged
[18] = in vivo, plasma concentration, CPM2 caged
[19] = in vivo, plasma concentration, CPM3 caged
[20] = in vivo, plasma concentration, JH caged

CNCCN1C(=O)[C@H](OC(C)=O)[C@H](c2ccc(OC)cc2)Sc2ccccc21 [Desm eth yld ilt ia zem, Desmethyldiltiazem]
Sculpin (whole body) concentration [1, 7]: 0.07 to 0.08 ng/g | Salmon (whole body) concentration [2, 7]: 0.06 to 1.5 ng/g

Cc1nnc2n1-c1ccc(Cl)cc1C(c1ccccc1)=NC2 [Alpr azolam, Alprazolam]
Sculpin (whole body) concentration [1, 7]: 0.38 ng/g

CC1=C\[C@@H](O)CC(=O)Cc2nc(co2)C(=O)N2CCC=C2C(=O)O[C@H](C(C)C)[C@H](C)/C=C/C(=O)NC\C=C\1 [Virg in iam ycin M1, Virginiamycin M1]
Sculpin (whole body) concentration [1, 7]: 8 to 34 ng/g | Salmon (whole body) concentration [2, 7]: 10 ng/g

CC[C@H]1OC(=O)[C@H](C)[C@@H](O[C@H]2C[C@@](C)(OC)[C@@H](O)[C@H](C)O2)[C@H](C)[C@@H](O[C@@H]2O[C@H](C)C[C@H](N(C)C)[C@H]2O)[C@](C)(O)C[C@@H](C)CN(C)[C@H](C)[C@@H](O)[C@]1(C)O [Azithrom yc in, Azithromycin]
Salmon (whole body) concentration [2, 7]: 1.7 ng/g

Anhydrochlortetracycline
plasma concentration, CPM wild-01 [3, 8]: < 2.94 ng/g | plasma concentration, CPM wild-02 [3, 9]: < 3.18 ng/g | plasma concentration, CPM wild-03 [3, 10]: < 3.13 ng/g | plasma concentration, CPM1 caged (in vivo; [11]): 2.97 ng/g | plasma concentration, CPM2 caged (in vivo; [12]): < 2.92 ng/g | plasma concentration, CPM3 caged (in vivo; [13]): < 3.07 ng/g | plasma concentration, JH caged (in vivo; [14]): < 3.0 ng/g

CNCCC(Oc1ccc(C(F)(F)F)cc1)c1ccccc1 (stereo not shown) [Fluoxetine]
Salmon (whole body) concentration [2, 7]: 4.9 ng/g

Clc1ccc(COC(Cn2ccnc2)c2ccc(Cl)cc2Cl)c(Cl)c1 (stereo not shown) [Miconazole]
Salmon (whole body) concentration [2, 7]: 1.8 ng/g

CN(C)CCC=C1c2ccccc2CCc2ccccc21 [Amitriptyline]
Goldfish plasma concentration, this study (range) ([3]; Table S7): 0.03 to 0.09 ng/g | plasma concentration, CPM wild-01 [3, 8]: 0.029 ng/g | plasma concentration, CPM wild-02 [3, 9]: 0.082 ng/g | plasma concentration, CPM wild-03 [3, 10]: 0.091 ng/g | Salmon (whole body) concentration [2, 7]: 0.58 to 0.68 ng/g | concentration at 21 days (in vivo; in vivo, plasma concentration, CPM1 caged, CPM1, 07-2014, pooled plasma, wet weight): 0.029 ng/g | concentration at 21 days (in vivo; in vivo, plasma concentration, CPM2 caged, CPM2, 07-2014, pooled plasma, wet weight): 0.029 ng/g | concentration at 21 days (in vivo; in vivo, plasma concentration, CPM3 caged, CPM3, 07-2014, pooled plasma, wet weight): 0.031 ng/g | concentration at 21 days (in vivo; in vivo, plasma concentration, JH caged, Jordan Harbour reference site, 07-2014, pooled plasma, wet weight): < 0.06 ng/g

COc1cc(C)c(Cc2cnc(N)nc2N)cc1OC [Orm etoprim, Ormetoprim]
Salmon (whole body) concentration [2, 7]: 44 to 1600 ng/g

O=C(O)c1cn(C2CC2)c2cc(N3CCNCC3)c(F)cc2c1=O [Ciproﬂoxacin, Ciprofloxacin]
Sculpin (whole body) concentration [1, 7]: 17 ng/g

C[C@H](O)C(=O)Nc1c(I)c(C(=O)NC(CO)CO)c(I)c(C(=O)NC(CO)CO)c1I [Iopamidol]
log Kow [4]: -2.21 | plasma concentration, carp, this study (mean) ([3]; in vivo): < mdl | plasma concentration, CPM wild-01 [3, 15]: 7.85 ng/g | plasma concentration, CPM wild-02 [3, 15]: 8.15 ng/g | plasma concentration, CPM wild-03 [3, 15]: 8.35 ng/g | plasma concentration, goldfish, this study (mean) [3, 15]: 8.12 ng/g wet weight or ng/mL for plasma | wild goldfish plasma, range of concentrations [3, 15]: 8.2 to 20.9 ng/g | BAFP, CPM1 goldfish caged [5]: 75 L/kg | BAFP, CPM2 goldfish caged [5]: 50 L/kg | BAFP, CPM3 goldfish caged [5]: 13 L/kg | BAFP at CPM3, wild goldfish, average [5]: 38 L/kg | BAFP at CPM3, wild goldfish, range [5]: 37 to 40 L/kg | concentration at 21 days (in vivo; [16]): 7.85 to 8.35 ng/g | concentration at 21 days (in vivo; [17]): 20.9 ng/g | concentration at 21 days (in vivo; [18]): 17.6 ng/g | concentration at 21 days (in vivo; [19]): 8.2 ng/g | concentration at 21 days (in vivo; [20]): < 16 ng/g

COc1ccc(CCNCCCC(C#N)(c2ccc(OC)c(OC)c2)C(C)C)cc1OC (stereo not shown) [Norverapam il, Norverapamil]
Sculpin (whole body) concentration [1, 7]: 0.20 to 0.30 ng/g | Salmon (whole body) concentration [2, 7]: 0.12 to 0.47 ng/g

COc1cc(NS(=O)(=O)c2ccc(N)cc2)nc(OC)n1 [Sulfadim ethoxine, Sulfadimethoxine]
Salmon (whole body) concentration [2, 7]: 0.34 to 17 ng/g

NC(=O)N1c2ccccc2C=Cc2ccccc21 [carbamazepine]
detection in fish plasma (in vivo; in vivo): not detected

CN1[C@@H]2CC[C@H]1C[C@@H](OC(c1ccccc1)c1ccccc1)C2 [Benztropine]
log Kow [4]: 3.85 | whole fish concentration, sculpin ([1]; ref Meador et al. 18): < mdl | Therapeutic "normal" blood-plasma/serum concentration [6]: 10 to 180 ng/mL | toxic dose (toxic blood-plasma/serum concentration) [6]: 50 ng/mL | Salmon (whole body) concentration [2, 7]: 0.2 ng/g | whole fish concentration, salmon ([2]; ref Meador et al. 18): 0.2 ng/g wet weight or ng/mL for plasma

Cc1ccnc(NS(=O)(=O)c2ccc(N)cc2)n1 [Sulfam erazine, Sulfamerazine]
Salmon (whole body) concentration [2, 7]: 0.51 ng/g

CN(C)CCC=C1c2ccccc2CC(O)c2ccccc21 (stereo not shown) [10-hydroxy-amitriptyline]
plasma concentration, CPM-C 01 ([3]; Cootes carp 01, 2011, male, wet weight): 0.032 ng/g | plasma concentration, CPM-C 2 ([3]; Cootes carp 2, Sep 27, 2011, male, wet weight): 0.053 ng/g | plasma concentration, CPM-C 10 ([3]; Cootes carp 10, Sep 28, 2011, female, wet weight): 0.024 ng/g | plasma concentration, CPM-C 13 ([3]; Cootes carp 13, Sep 28, 2011, female, wet weight): 0.047 ng/g | plasma concentration, CPM-C 20 ([3]; Cootes carp 20, 2011, male, wet weight): 0.016 ng/g | plasma concentration, CPM-C 36 ([3]; Cootes carp 36, Oct 3, 2011, female, wet weight): 0.025 ng/g | Carp plasma concentration, this study (range) ([3]; Table S7): 0.02 to 0.05 ng/g | Goldfish plasma concentration, this study (range) ([3]; Table S7): 0.01 to 0.06 ng/g | plasma concentration, CPM wild-01 [3, 8]: 0.015 ng/g | plasma concentration, CPM wild-02 [3, 9]: 0.036 ng/g | plasma concentration, CPM wild-03 [3, 10]: 0.058 ng/g | Sculpin (whole body) concentration ([1]; in vivo): 0.13 ng/g | Salmon (whole body) concentration ([2]; in vivo): 0.09 ng/g | plasma concentration, CPM1 caged (in vivo; [11]): 0.033 ng/g | plasma concentration, CPM2 caged (in vivo; [12]): 0.039 ng/g | plasma concentration, CPM3 caged (in vivo; [13]): 0.015 ng/g | plasma concentration, JH caged (in vivo; [14]): < 0.03 ng/g

CN(C)CCCC1(c2ccc(F)cc2)OCc2cc(C#N)ccc21 (stereo not shown) [Citalopram]
log Kow [4]: 3.74 | plasma concentration, carp, this study (mean) ([3]; in vivo): < mdl | plasma concentration, CPM wild-01 [3, 15]: 0.0392 ng/g | plasma concentration, CPM wild-02 [3, 15]: 0.127 ng/g | plasma concentration, CPM wild-03 [3, 15]: 0.13 ng/g | plasma concentration, goldfish, this study (mean) [3, 15]: 0.10 ng/g wet weight or ng/mL for plasma | wild goldfish plasma, range of concentrations [3, 15]: 0.04 to 0.16 ng/g | Therapeutic "normal" blood-plasma/serum concentration [6]: 50 to 110 ng/mL | BAFP, CPM1 goldfish caged [5]: 4 L/kg | BAFP, CPM2 goldfish caged [5]: 6 L/kg | BAFP, CPM3 goldfish caged [5]: 52 L/kg | BAFP at CPM3, wild goldfish, average [5]: 44 L/kg | BAFP at CPM3, wild goldfish, range [5]: 18 to 58 L/kg | concentration at 21 days (in vivo; [16]): 0.04 to 0.13 ng/g | concentration at 21 days (in vivo; [17]): 0.145 ng/g | concentration at 21 days (in vivo; [18]): 0.163 ng/g | concentration at 21 days (in vivo; [19]): 0.041 ng/g | concentration at 21 days (in vivo; [20]): < 0.08 ng/g

Oc1cc(Cl)ccc1Oc1ccc(Cl)cc1Cl [T riclosan, Triclosan]
Salmon (whole body) concentration [2, 7]: 26 ng/g

CN1C(=O)CN=C(c2ccccc2)c2cc(Cl)ccc21 [Diazepam]
Sculpin (whole body) concentration [1, 7]: 0.25 ng/g | Salmon (whole body) concentration [2, 7]: 0.39 ng/g

CN(C)CCOC(c1ccccc1)c1ccccc1 [Diphenhydramine]
BAFP, CPM1 goldfish caged [5]: 7 L/kg | BAFP, CPM2 goldfish caged [5]: 5 L/kg

Nc1ccc(S(=O)(=O)Nc2ncccn2)cc1 [Sulfadiazine]
Salmon (whole body) concentration [2, 7]: 0.88 ng/g

CC(C)(c1ccc(O)cc1)c1ccc(O)cc1 [Bisphenol A]
Sculpin (whole body) concentration [1, 7]: 3.6 to 4.5 ng/g | Salmon (whole body) concentration [2, 7]: 3.3 to 41 ng/g
